Experimental data as given in patent US20170000129A1, “METHOD FOR TREATING MINERAL SLURRIES WITH A BIOCIDE” (priority 2015, published 2017).

Assays:
[1] = system: bacterial growth in kaolin slurry; test: Kaolin slurry preservation test: biocide-dosed 65% solids slurry plated on standard method agar, samples as treated; type: cell-based, bacteria
Procedure: (§1) In the comparative testing, dry kaolin was mixed with water to achieve a 65% solid slurry material. This material contained no biocide. The slurry was then split into 200 gram aliquots and dosed with different biocides at different concentration as shown in Tables 1-3. All samples were kept at 50° C. until the end of the testing, which was up to 28 days.
A number of different and known biocides were used in the study and they include glutaraldehyde (glute), 1,2 benzithiazolin-3-one (BIT), tetrahydro-3-5-methyl-2H-1,3,5-thiadizine-2-thione (thione), isothiazoline (ISO), bronopol (BNPD) or orthophenyl phenate (OPP). For shorthand purposes, the study refers to the tradename of the biocide, which is found in the above listing of the biocides. Metam sodium is designated as SMDC and MDTCMA is used without change
(§2) The protocol for the testing of each sample is as follows: • 1) dosed with a recorded level of biocide; • 2) mixed for 24 hours contact time and plated using standard method agar for bacterial growth; • 3) remixed daily for 1 hour and retested for bacterial growth at Day 3; • 4) remixed daily for 1 hour and retested for bacterial growth at Day 7; • 5) remixed daily for 1 hour and retested for bacterial growth at Day 14; • 6) on day 20, samples were split into two containers: one container was inoculated (or challenged) with ˜10^5 cfu/ml bacteria, the other was left “as treated”, the challenge material was obtained from a contaminated kaolin product and is assumed to be representative of the types of bacteria that are seen in the kaolin industry, and the two sets of samples were prepared for Day 21 testing; • 7) both sets were remixed daily for 1 hour and retested for bacterial growth at Day 21; and • 8) both sets remixed daily for 1 hour and retested for bacterial growth at Day 28.
Different contact times were used to see how quickly the bacterial population was effected by the biocide.

[2] = system: bacteria from a contaminated kaolin product; test: Kaolin slurry preservation test, challenge: on day 20 samples inoculated with ~10^5 cfu/ml bacteria from a contaminated kaolin product; type: cell-based
Procedure: as §1, §2

CN.CNC(=S)S [MDTCMA, methylammonium monomethyldithiocarbamate]
Log Red, contact time 1 day ([1]; 500 ppm, Table 1): 0 | Log Red, contact time 3 day ([1]; 500 ppm, Table 1): 1 | Log Red, contact time 7 day ([1]; 500 ppm, Table 1): 3 | cfu/mL, contact time 1 day ([1]; 500 ppm, Table 1): 13,140,000 cfu/mL | cfu/mL, contact time 3 day ([1]; 500 ppm, Table 1): 1,880,000 cfu/mL | cfu/mL, contact time 7 day ([1]; 500 ppm, Table 1): 40,000 cfu/mL | performance against the BIT biocide when measuring log reduction ([1]; 500 ppm, Table 1): performed at least as well as the BIT biocide | Log Red, contact time 1 day ([1]; 500 ppm, Table 2): 0 | Log Red, contact time 3 day ([1]; 500 ppm, Table 2): 1 | Log Red, contact time 7 day ([1]; 500 ppm, Table 2): 4 | Log Red, contact time 14 day ([1]; 500 ppm, Table 2): 4 | Log Red, contact time 21 day ([1]; 500 ppm, Table 2): 5 | Log Red, contact time 28 day ([1]; 500 ppm, Table 2): 4 | cfu/mL, contact time 1 day ([1]; 500 ppm, Table 2): 18,840,000 cfu/mL | cfu/mL, contact time 3 day ([1]; 500 ppm, Table 2): 1,960,000 cfu/mL | cfu/mL, contact time 7 day ([1]; 500 ppm, Table 2): 5,600 cfu/mL | cfu/mL, contact time 14 day ([1]; 500 ppm, Table 2): 3,100 cfu/mL | cfu/mL, contact time 21 day ([1]; 500 ppm, Table 2): 1,800 cfu/mL | cfu/mL, contact time 28 day ([1]; 500 ppm, Table 2): 2,500 cfu/mL | Log Red, contact time 1 day ([1]; 1000 ppm, Table 1): 1 | Log Red, contact time 3 day ([1]; 1000 ppm, Table 1): 2 | Log Red, contact time 7 day ([1]; 1000 ppm, Table 1): 5 | cfu/mL, contact time 1 day ([1]; 1000 ppm, Table 1): 7,060,000 cfu/mL | cfu/mL, contact time 3 day ([1]; 1000 ppm, Table 1): 1,680,000 cfu/mL | cfu/mL, contact time 7 day ([1]; 1000 ppm, Table 1): 1,000 cfu/mL | performance against the BIT biocide when measuring log reduction ([1]; 1000 ppm, Table 1): far superior | Log Red, contact time 1 day ([1]; 1000 ppm, Table 2): 0 | Log Red, contact time 3 day ([1]; 1000 ppm, Table 2): 4 | Log Red, contact time 7 day ([1]; 1000 ppm, Table 2): 4 | Log Red, contact time 14 day ([1]; 1000 ppm, Table 2): 4 | Log Red, contact time 21 day ([1]; 1000 ppm, Table 2): 5 | Log Red, contact time 28 day ([1]; 1000 ppm, Table 2): 4 | cfu/mL, contact time 1 day ([1]; 1000 ppm, Table 2): 14,520,000 cfu/mL | cfu/mL, contact time 3 day ([1]; 1000 ppm, Table 2): 7,000 cfu/mL | cfu/mL, contact time 7 day ([1]; 1000 ppm, Table 2): 3,200 cfu/mL | cfu/mL, contact time 14 day ([1]; 1000 ppm, Table 2): 2,500 cfu/mL | cfu/mL, contact time 21 day ([1]; 1000 ppm, Table 2): 1,100 cfu/mL | cfu/mL, contact time 28 day ([1]; 1000 ppm, Table 2): 1,700 cfu/mL | Log Red, contact time 1 day ([1]; 1000 ppm, Table 3): 3 | Log Red, contact time 3 day ([1]; 1000 ppm, Table 3): 2 | Log Red, contact time 7 day ([1]; 1000 ppm, Table 3): 2 | Log Red, contact time 14 day ([1]; 1000 ppm, Table 3): 3 | Log Red, contact time 21 day ([1]; 1000 ppm, Table 3): 2 | Log Red, contact time 28 day ([1]; 1000 ppm, Table 3): 2 | cfu/mL, contact time 1 day ([1]; 1000 ppm, Table 3): 100 cfu/mL | cfu/mL, contact time 3 day ([1]; 1000 ppm, Table 3): 100 cfu/mL | cfu/mL, contact time 7 day ([1]; 1000 ppm, Table 3): 100 cfu/mL | cfu/mL, contact time 14 day ([1]; 1000 ppm, Table 3): 100 cfu/mL | cfu/mL, contact time 21 day ([1]; 1000 ppm, Table 3): 100 cfu/mL | cfu/mL, contact time 28 day ([1]; 1000 ppm, Table 3): 100 cfu/mL | Log Red, contact time 1 day ([1]; 1500 ppm, Table 3): 3 | Log Red, contact time 3 day ([1]; 1500 ppm, Table 3): 2 | Log Red, contact time 7 day ([1]; 1500 ppm, Table 3): 2 | Log Red, contact time 14 day ([1]; 1500 ppm, Table 3): 3 | Log Red, contact time 21 day ([1]; 1500 ppm, Table 3): 2 | Log Red, contact time 28 day ([1]; 1500 ppm, Table 3): 2 | cfu/mL, contact time 1 day ([1]; 1500 ppm, Table 3): 100 cfu/mL | cfu/mL, contact time 3 day ([1]; 1500 ppm, Table 3): 100 cfu/mL | cfu/mL, contact time 7 day ([1]; 1500 ppm, Table 3): 100 cfu/mL | cfu/mL, contact time 14 day ([1]; 1500 ppm, Table 3): 100 cfu/mL | cfu/mL, contact time 21 day ([1]; 1500 ppm, Table 3): 100 cfu/mL | cfu/mL, contact time 28 day ([1]; 1500 ppm, Table 3): 100 cfu/mL | biocide efficacy compared with known biocides ([1]; Table 2, up to 28 days): comparable biocide efficacy as compared to known biocides | biocide effectiveness compared with thione ([1]; Table 3, up to the 28 day testing, not challenge testing, 1000 and 1500 ppm): performed on a par with the thione | Log Red, 21 day Challenge ([2]; 500 ppm, Table 2): 3 | Log Red, 28 day Challenge ([2]; 500 ppm, Table 2): 3 | cfu/mL, 21 day Challenge ([2]; 500 ppm, Table 2): 73,000 cfu/mL | cfu/mL, 28 day Challenge ([2]; 500 ppm, Table 2): 65,000 cfu/mL | Log Red, 21 day Challenge ([2]; 1000 ppm, Table 2): 3 | Log Red, 28 day Challenge ([2]; 1000 ppm, Table 2): 3 | cfu/mL, 21 day Challenge ([2]; 1000 ppm, Table 2): 52,000 cfu/mL | cfu/mL, 28 day Challenge ([2]; 1000 ppm, Table 2): 32,000 cfu/mL | Log Red, 21 day Challenge ([2]; 1000 ppm, Table 3): 2 | Log Red, 28 day Challenge ([2]; 1000 ppm, Table 3): 1 | cfu/mL, 21 day Challenge ([2]; 1000 ppm, Table 3): 196,000 cfu/mL | cfu/mL, 28 day Challenge ([2]; 1000 ppm, Table 3): 3,680,000 cfu/mL | Log Red, 21 day Challenge ([2]; 1500 ppm, Table 3): 3 | Log Red, 28 day Challenge ([2]; 1500 ppm, Table 3): 1 | cfu/mL, 21 day Challenge ([2]; 1500 ppm, Table 3): 18,200 cfu/mL | cfu/mL, 28 day Challenge ([2]; 1500 ppm, Table 3): 2,300,000 cfu/mL | biocide effectiveness in challenge testing ([2]; Table 3, challenge testing): still performed adequately | biocide effectiveness after inoculation, overall result of the studies ([2]; after inoculation): effective biocide
